Earlier results as cited in US20050169894A1, “Compositions and methods for ex vivo preservation of blood vessels for vascular grafts using inhibitors of Type III and/or Type IV phosphodiesterases” (priority 2003, published 2005).

Columns and labels:
[1] = system: endothelial cells; conditions: stated as known; about 4 mM
[2] = system: Type IV phosphodiesterase; conditions: at high concentrations; Lugnier and Komas, 1993
[3] = biological target: Type V phosphodiesterase (Homo sapiens, UniProt O76074); conditions: at high concentrations; Lugnier and Komas, 1993

CCCC(=O)Nc1ncnc2c1ncn2[C@@H]1O[C@@H]2COP(=O)(O)O[C@H]2[C@H]1OC(=O)CCC [db cAMP, dibutyryl adenosine 3′,5′-cyclic monophosphate]
concentration toxic to endothelial cells [1]: higher than 4 mM

Cc1[nH]c(=O)c(C#N)cc1-c1ccncc1 [milrinone, Milrinone]
inhibition of Type IV phosphodiesterase activity [2]: inhibits
inhibition of Type V phosphodiesterase activity [3]: inhibits
